Reference: US20130116287A1 (priority 2010, published 2013)
Values joined by “and” are separate entries in the source; they are usually repeats but may differ in a detail not shown here. Identical values can stand only once. Like-named read-outs stand apart in the source and are kept apart here.

How the values were obtained:
Plasmopara viticola = experiment: Plasmopara test (grapevines) / preventive; type: in vivo; conditions: 100 ppm of active ingredient, evaluated 6 days after inoculation, 100% = no disease
Procedure: Plasmopara Test (Grapevines)/Preventive
Solvent: 24.5 parts by weight of acetone
24.5 parts by weight of dimethylacetamide
Emulsifier: 1 part by weight of alkylaryl polyglycol ether
To produce a suitable preparation of active compound, 1 part by weight of active compound is mixed with the stated amounts of solvent and emulsifier, and the concentrate is diluted with water to the desired concentration.
To test for preventive activity, young plants are sprayed with the preparation of active compound at the stated rate of application. After the spray coating has dried on, the plants are inoculated with an aqueous spore suspension of Plasmopara viticola and then remain for 1 day in an incubation cabinet at approximately 20° C. and a relative atmospheric humidity of 100%. The plant is subsequently placed for 4 days in a greenhouse at approximately 21° C. and a relative atmospheric humidity of approximately 90%. The plants are then misted and placed for 1 day in an incubation cabinet.
The test is evaluated 6 days after the inoculation. 0% means an efficacy which corresponds to that of the untreated control, while an efficacy of 100% means that no disease is observed.

Phytophthora infestans = type: in vivo; conditions: 500 ppm of active ingredient; tomato, preventive; evaluated 7 days after inoculation; 100% = no disease
[1] = Measurement of logP values by HPLC on reversed phase columns (EEC directive 79/831 Annex V.A8); type: physicochemical; conditions: for Log P (two values printed, isomers not assigned) / Log P / Log P [I1] main isomer / Log P [I2] minor isomer: HPLC; for Log P (two values printed, isomers not assigned): two values without isomer tag; for Log P: pH 2.7, 0.1% formic acid in water / acetonitrile, single value
[2] = pH 2.7, 0.1% formic acid, main isomer
[3] = pH 2.7, 0.1% formic acid, minor isomer

Structure (SMILES) | efficacy (Plasmopara viticola) | efficacy (Phytophthora infestans) | Log P [1] | further results
Cc1snnc1C(=NOCc1csc(NC(=O)COC2CCCCC2)n1)c1ccccc1 [Example 59, 2-(cyclohexyloxy)-N-{4-[({[(5-methyl-1,2,3-thiadiazol-4-yl)(phenyl)methylene]amino}oxy)methyl]-1,3-thiazol-2-yl}acetamide] | 75% | 97% | – | chromatographic logP ([1]; pH 2.7, HPLC, pH 2.7, 0.1% formic acid, main isomer, read-out: Log P [I1] main isomer): 4.41; chromatographic logP ([1]; pH 2.7, HPLC, pH 2.7, 0.1% formic acid, minor isomer, read-out: Log P [I2] minor isomer): 4.32; chromatographic logP ([1]; reversed phase HPLC columns, pH 2.7, mixture of Z and E diastereoisomers, preparation example 1, read-out: logP(HCOOH)): 4.41
Cc1snnc1C(=NOCc1csc(NC(=O)COc2ccccc2)n1)c1ccccc1 (mixture of isomers) [Example 7] | 88% | 100% | – | Log P (two values printed, isomers not assigned) ([1]; pH 2.7, 0.1% formic acid): 3.71 and 3.83
Cc1snnc1C(=NOCc1csc(NC(=O)COCc2ccccc2)n1)c1ccccc1 [Example 27] | 89% | 100% | 3.92 | –
Cc1snnc1C(=NOCc1csc(NC(=O)COCC(C)C)n1)c1ccccc1 [Example 63] | 75% | 100% | 4.01 | –
Cc1snnc1C(=NOCc1csc(NC(=O)COCc2ccccc2)n1)c1ccccc1 (mixture of isomers) [Example 28] | 93% | 100% | – | Log P [I1] main isomer [1, 2]: 3.96; Log P [I2] minor isomer [1, 3]: 3.85
Cc1snnc1C(=NOCc1csc(NC(=O)COC2CCCC2)n1)c1ccccc1 [Example 23] | 91% | 95% | 4.09 | –
Cc1snnc1C(=NOCc1csc(NC(=O)C(C)OCC2CC2)n1)c1ccccc1 (stereo not drawn) [Example 39] | 91% | 97% | 3.83 | –
Cc1snnc1C(=NOCc1csc(NC(=O)C(C)Oc2ccccc2)n1)c1ccccc1 (stereo not drawn) [Example 15] | 93% | 100% | 4.04 | –
Cc1snnc1C(=NOCc1cccc(NC(=O)CSc2ccccc2)n1)c1ccccc1 (mixture of isomers) [Example 6] | 86% | 98% | – | Log P [I2] minor isomer [1, 3]: 4.09
Cc1snnc1C(=NOCc1cccc(NC(=O)C(F)(F)Oc2ccccc2)n1)c1ccccc1 [Example 2] | 74% | 100% | 4.54 | –
Cc1snnc1C(=NOCc1csc(NC(=O)C(C)OCC(C)C)n1)c1ccccc1 (stereo not drawn) [Example 85] | 73% | 95% | – | –
Cc1snnc1C(=NOCc1csc(NC(=O)COc2ccc(Cl)cc2)n1)c1ccccc1 (mixture of isomers) [Example 33] | – | 100% | – | Log P (two values printed, isomers not assigned) ([1]; pH 2.7, 0.1% formic acid): 4.09
Cc1snnc1C(=NOCc1cccc(NC(=O)CSCCc2ccccc2)n1)c1ccccc1 [Example 52] | – | 97% | 4.53 | –
C=CCSCC(=O)Nc1cccc(CON=C(c2ccccc2)c2nnsc2C)n1 [Example 92] | – | 90% | 3.79 | –
Cc1snnc1C(=NOCc1cccc(NC(=O)COCCC2CCCCC2)n1)c1ccccc1 [Example 84] | – | 75% | 5.81 | –
Cc1snnc1C(=NOCc1csc(NC(=O)COCCC(C)C)n1)c1ccccc1 [Example 3] | 84% | 95% | 4.36 | –
Cc1snnc1C(=NOCc1csc(NC(=O)C(C)(C)Oc2ccccc2)n1)c1ccccc1 [Example 102] | – | 100% | 4.53 | –
Cc1snnc1C(=NOCc1csc(NC(=O)C(C)OCCC(C)C)n1)c1ccccc1 (stereo not drawn) [Example 49] | – | 98% | 4.68 | –
Cc1snnc1C(=NOCc1csc(NC(=O)COCC2CCC2)n1)c1ccccc1 [Example 53] | 95% | 97% | 4.11 | –
Cc1snnc1C(=NOCc1cccc(NC(=O)C(C)OCC2CCCCC2)n1)c1ccccc1 (stereo not drawn) [Example 74] | – | 94% | 5.87 | –
Cc1snnc1C(=NOCc1cccc(NC(=O)C(C)OCc2ccccc2)n1)c1ccccc1 (stereo not drawn) [Example 94] | – | 95% | 4.58 | –

Structure (SMILES) | efficacy (Plasmopara viticola) | efficacy (Phytophthora infestans) | Log P [1] | further results
Cc1snnc1C(=NOCc1csc(NC(=O)COC(C)C)n1)c1ccccc1 [Example 65] | 84% | 95% | 3.59 | –
CC(=O)OC(C)(C)C(=O)Nc1cccc(CON=C(c2ccccc2)c2nnsc2C)n1 (mixture of isomers) [Example 101] | – | 95% | – | Log P [I1] main isomer [1, 2]: 3.48; Log P [I2] minor isomer [1, 3]: 3.35
Cc1snnc1C(=NOCc1csc(NC(=O)C(F)(F)Oc2ccccc2)n1)c1ccccc1 (mixture of isomers) [Example 1] | – | 100% | – | Log P [I1] main isomer [1, 2]: 4.25; Log P [I2] minor isomer [1, 3]: 4.15
C#CCOCC(=O)Nc1cccc(CON=C(c2ccccc2)c2nnsc2C)n1 [Example 48] | – | 100% | 3.29 | –
Cc1snnc1C(=NOCc1cccc(NC(=O)COCc2ccccc2)n1)c1ccccc1 (mixture of isomers) [Example 29] | – | 93% | – | Log P [I1] main isomer [1, 2]: 4.34
Cc1snnc1C(=NOCc1cccc(NC(=O)C(C)OCCC(C)C)n1)c1ccccc1 (stereo not drawn) [Example 50] | – | 97% | 5.11 | –
Cc1snnc1C(=NOCc1cccc(NC(=O)C(C)OCC2CCCC2)n1)c1ccccc1 (stereo not drawn) [Example 76] | – | 97% | 5.39 | –
COc1ccccc1OCC(=O)Nc1nc(CON=C(c2ccccc2)c2nnsc2C)cs1 (mixture of isomers) [Example 57] | 72% | 100% | – | Log P [I1] main isomer [1, 2]: 3.89; Log P [I2] minor isomer [1, 3]: 3.78
Cc1snnc1C(=NOCc1cccc(NC(=O)COCC(C)C)n1)c1ccccc1 [Example 64] | – | 98% | 4.44 | –
C=CCOC(C)C(=O)Nc1cccc(CON=C(c2ccccc2)c2nnsc2C)n1 (stereo not drawn) [Example 26] | – | 95% | 3.94 | –
Cc1snnc1C(=NOCc1cccc(NC(=O)CSC2CCCC2)n1)c1ccccc1 [Example 107] | – | 92% | 4.51 | –
Cc1snnc1C(=NOCc1csc(NC(=O)COCC2CCCCC2)n1)c1ccccc1 [Example 69] | – | 97% | 4.93 | –
C=CCCOC(C)C(=O)Nc1nc(CON=C(c2ccccc2)c2nnsc2C)cs1 (stereo not drawn) [Example 19] | – | 98% | 3.99 | –
CCOC(C)(C)C(=O)Nc1cccc(CON=C(c2ccccc2)c2nnsc2C)n1 [Example 62] | – | 95% | 4.34 | –
C=CCOC(C)C(=O)Nc1nc(CON=C(c2ccccc2)c2nnsc2C)cs1 (stereo not drawn) [Example 25] | 77% | 98% | 3.61 | –
Cc1snnc1C(=NOCc1cccc(NC(=O)COCC2CCCCC2)n1)c1ccccc1 [Example 70] | – | 89% | 5.45 | –
Cc1snnc1C(=NOCc1csc(NC(=O)COc2ccccc2)n1)c1ccccc1 [Example 8] | 72% | 100% | 3.8 | –
Cc1snnc1C(=NOCc1cccc(NC(=O)COCCC2CCCC2)n1)c1ccccc1 [Example 78] | – | 89% | 5.39 | –
Cc1snnc1C(=NOCc1cccc(NC(=O)COC2CCCCC2)n1)c1ccccc1 [Example 60] | – | 95% | 4.91 | –
CC(=O)OCC(=O)Nc1cccc(CON=C(c2ccccc2)c2nnsc2C)n1 (mixture of isomers) [Example 12] | – | 70% | – | Log P [I1] main isomer [1, 2]: 2.93; Log P [I2] minor isomer [1, 3]: 2.82
